Reference: patent publication US20240158438A1, “POLYPEPTIDE COMPOUND AND APPLICATION THEREOF” (CHENGDU SINTANOVO BIOTECHNOLOGY CO., LTD., priority 2021, published 2024)
Starred links: 1 amine or outer side, 2 acyl side, 3 side chain; linkers in the order of their positions; H or OH if unused. Non-standard residues stand in square brackets, D forms with d. Residues, ends and D or L forms follow the SMILES beside them. *: point of attachment. Azetidine3carboxylic = O=C(C1CN([*:1])C1)[*:2]; Pyrrolidine3carbonyl(3S) = O=C([C@H]1CCNC1)*; dBta = N[C@H](Cc1csc2ccccc12)C(=O)O; Ac4c(3-oxa) = NC1(C(=O)O)COC1; X1 = N[C@H]1CCC[C@H]1C(=O)*; X2 = O=C(C12CNC[C@@H]1C2)*; dAbu = CC[C@@H](N)C(=O)O; Api = NC1(C(=O)O)CCNCC1; dAze = O=C(O)[C@H]1CCN1; Abu = CC[C@H](N)C(=O)O; X3 = NCC1(C(=O)*)CCC1; βAla = NCCC(=O)O

Key:
CYP 2D6 = CYP 2D6 (Homo sapiens (Human), UniProt P10635); format: in vitro ADME; conditions: microsomes, 10 min
Sequence of CYP 2D6 (P10635 whole entry): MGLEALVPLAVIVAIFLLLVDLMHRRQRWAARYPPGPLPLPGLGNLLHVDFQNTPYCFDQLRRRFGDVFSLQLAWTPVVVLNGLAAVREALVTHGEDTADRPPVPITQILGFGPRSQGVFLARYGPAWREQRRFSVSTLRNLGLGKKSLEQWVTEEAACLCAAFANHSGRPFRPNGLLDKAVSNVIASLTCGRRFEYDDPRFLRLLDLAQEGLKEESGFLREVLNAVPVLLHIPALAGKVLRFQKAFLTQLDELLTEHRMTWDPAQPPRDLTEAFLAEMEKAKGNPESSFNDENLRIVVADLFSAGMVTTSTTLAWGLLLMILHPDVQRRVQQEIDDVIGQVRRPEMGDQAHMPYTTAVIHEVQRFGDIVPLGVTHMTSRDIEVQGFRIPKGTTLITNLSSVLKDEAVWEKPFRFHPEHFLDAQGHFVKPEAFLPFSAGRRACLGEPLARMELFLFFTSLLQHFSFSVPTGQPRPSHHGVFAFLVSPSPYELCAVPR
Experimental: (§1) Human liver microsomes containing cytochrome P450 (0.253 mg/mL protein) were incubated with test compounds (0.05-50 μM), CYPs substrates (10 μM […], 5 μM diclofenac, 30 μM mephenytoin, 5 μM dextromethorphan hydrobromide and 2 μM midazolam) and 1.0 mM NADP at 37° C. for 10 min. Naphthoflavone, sulfaphenazole, N-3-benzylnirvanol, quinidine and ketoconazole were used as reference inhibitors.

CYP 2C9 = CYP 2C9 (Homo sapiens (Human), UniProt P11712); format: in vitro ADME; conditions: microsomes, 10 min
Sequence of CYP 2C9 (P11712 whole entry): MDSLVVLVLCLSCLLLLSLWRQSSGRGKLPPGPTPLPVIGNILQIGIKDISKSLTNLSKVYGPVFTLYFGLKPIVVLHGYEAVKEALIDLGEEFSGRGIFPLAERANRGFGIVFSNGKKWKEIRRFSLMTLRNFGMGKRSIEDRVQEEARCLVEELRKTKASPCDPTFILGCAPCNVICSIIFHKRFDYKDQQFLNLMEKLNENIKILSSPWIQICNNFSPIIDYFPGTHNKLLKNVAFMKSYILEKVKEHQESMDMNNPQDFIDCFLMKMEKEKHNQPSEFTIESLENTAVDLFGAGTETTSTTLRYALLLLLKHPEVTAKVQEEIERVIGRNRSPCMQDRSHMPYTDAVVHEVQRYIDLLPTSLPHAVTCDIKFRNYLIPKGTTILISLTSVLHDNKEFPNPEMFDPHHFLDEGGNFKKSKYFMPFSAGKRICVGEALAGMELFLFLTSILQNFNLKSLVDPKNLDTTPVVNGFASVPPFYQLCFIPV
Experimental: as §1

CYP 2C19 = CYP 2C19 (Homo sapiens (Human), UniProt P33261); format: in vitro ADME; conditions: microsomes, 10 min
Sequence of CYP 2C19 (P33261 whole entry): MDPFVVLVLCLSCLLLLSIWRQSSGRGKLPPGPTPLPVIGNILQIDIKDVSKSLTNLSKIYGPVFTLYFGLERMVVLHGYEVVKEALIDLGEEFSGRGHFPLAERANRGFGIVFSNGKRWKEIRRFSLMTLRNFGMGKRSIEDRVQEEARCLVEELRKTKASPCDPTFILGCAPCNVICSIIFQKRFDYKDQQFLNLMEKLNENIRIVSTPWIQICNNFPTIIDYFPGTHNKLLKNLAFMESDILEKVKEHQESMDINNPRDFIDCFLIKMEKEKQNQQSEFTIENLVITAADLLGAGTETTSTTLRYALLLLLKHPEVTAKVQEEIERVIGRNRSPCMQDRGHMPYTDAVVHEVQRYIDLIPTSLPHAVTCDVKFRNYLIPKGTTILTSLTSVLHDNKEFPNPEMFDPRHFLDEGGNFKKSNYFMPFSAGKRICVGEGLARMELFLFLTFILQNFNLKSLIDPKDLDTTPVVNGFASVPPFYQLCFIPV
Experimental: as §1

CYP 3A4 = CYP 3A4 (Homo sapiens (Human), UniProt P08684); format: in vitro ADME; conditions: microsomes, 10 min
Sequence of CYP 3A4 (P08684 whole entry): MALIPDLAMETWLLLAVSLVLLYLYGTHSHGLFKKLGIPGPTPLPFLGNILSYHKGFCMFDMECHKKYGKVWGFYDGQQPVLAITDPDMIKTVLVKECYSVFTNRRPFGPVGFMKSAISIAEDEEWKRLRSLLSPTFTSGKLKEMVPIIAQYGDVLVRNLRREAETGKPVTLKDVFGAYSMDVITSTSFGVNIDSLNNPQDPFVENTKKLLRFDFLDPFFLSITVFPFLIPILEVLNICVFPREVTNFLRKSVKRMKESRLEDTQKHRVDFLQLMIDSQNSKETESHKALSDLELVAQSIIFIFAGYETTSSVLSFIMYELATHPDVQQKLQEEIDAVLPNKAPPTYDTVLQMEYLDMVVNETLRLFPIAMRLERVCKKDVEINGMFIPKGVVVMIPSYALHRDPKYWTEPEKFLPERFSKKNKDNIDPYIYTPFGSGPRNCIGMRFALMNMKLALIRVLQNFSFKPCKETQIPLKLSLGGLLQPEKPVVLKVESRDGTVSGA
Experimental: as §1

GHSR-1a = GHSR-1a (Homo sapiens (Human), UniProt Q92847); experiment: Agonistic activity for GHSR-1a, FLIPR calcium assay; format: cell-based; conditions: agonist activity assay, Flp In-CHO-GHSR Stable Pool cells, FLIPR calcium 6 kit; read-out: The activity (IC50) of polypeptide compounds for GHSR-1a
Sequence of GHSR-1a (Q92847 whole entry): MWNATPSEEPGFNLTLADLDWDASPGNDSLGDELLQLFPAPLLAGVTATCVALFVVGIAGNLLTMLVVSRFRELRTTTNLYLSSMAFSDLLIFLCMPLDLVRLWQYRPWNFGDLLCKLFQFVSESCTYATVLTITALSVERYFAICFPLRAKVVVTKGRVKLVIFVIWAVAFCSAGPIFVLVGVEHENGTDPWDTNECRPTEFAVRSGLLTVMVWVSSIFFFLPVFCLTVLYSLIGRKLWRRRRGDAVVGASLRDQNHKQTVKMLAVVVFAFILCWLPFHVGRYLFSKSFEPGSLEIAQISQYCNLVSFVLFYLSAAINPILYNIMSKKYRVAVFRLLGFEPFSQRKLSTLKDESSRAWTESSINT
Text: The use of recombinant expression of GHSR provides several advantages; for example, the receptor can be expressed in a determined cell system, so that it is easier to distinguish between the reactions of the compounds with GHSR and the reactions with other receptors. For example, cell lines such as HEK293, COS7 and CHO that […] can be used to express GHSR, and the same cell lines without expression vectors are used as controls.
The activity of GHSR-1a can be measured using different techniques, for example, by detecting the change in the intracellular conformation of GHSR, the change in G-protein coupling activity, and/or the change in intracellular messengers. Techniques such as measuring intracellular Ca^2+ are preferably used to measure the activity of GHSR-1a. Examples of techniques known in the art that can be used to measure Ca^2+ include the use of FLIPR® calcium ion assay kits, among others. The FLIPR® calcium ion assay kits use a calcium ion sensitive indicator and a masking dye to ensure that a researcher carries out high-sensitivity fluorescent screening for G protein-coupled receptors, ion channels and other calcium ion sensitive targets. This experiment used FLIPR calcium 6 assay kits and FLIPR calcium 6-QF assay kits.
• a) Cell line: Flp In-CHO-GHSR Stable Pool; • b) Complete medium: F12K+10% fetal bovine serum+1×penicillin-streptomycin (PS)+600 μg/mL hygromycin B; • c) Cell seeding medium: F12K+10% fetal bovine serum. • d) Assay buffer: 1× HBSS+20 mM HEPES. • e) […] component A: Assay buffer and component A were left at room temperature (RT), 10 mL of buffer was added to component A, and the mixture was vortexed for 1-2 min and stored at −20° C.
• a) Compound stock solutions: the powders from in-house synthesis were made into 10 mM stock solutions in DMSO according to the standard protocol. • b) Compound storage: all compounds in DMSO were stored in room temperature desiccators for short-term storage (at most 4 months). The remaining compounds were left at −20 ° C. for long-term storage.
• a) Flp In-CHO-GHSR Stable Pool cells were cultured in complete medium. • b) The cells were placed in […] cell seeding medium in a 384-well cell culture plate (Corning, 3764) at 7k cells/well and cultured overnight at 37° C. with 5% CO2. • c) 20× component A was thawed at room temperature, diluted with assay buffer to 2×, and left at RT. • d) The Petri dish was taken out of the incubator and equilibrated at room temperature for 10 min. The medium was changed to […]. After the final wash, 20 μL of buffer was kept in each well, 20 μL of 2× component A was then added to each well, and the plate was incubated at 37° C. for 3-5 s. • e) 10 μL of 5× compound was added to the 384-well cell culture plate, and data collection was immediately performed using FLIPR Tetra.
• 1) Z′ factor=1−3×(SDMax+SDMin)/(MeanMax−MeanMin); • 2) CVMax=(SDMax/MeanMax)×100%; • 3) CVMin=(SDMin/MeanMin)×100%; • 4) S/B=Singal/Background; • 5) Calculation formula for IC50: • Y=Bottom+(Top−Bottom)/(1+10^((LogIC50−X)×HillSlope)) • X: log value of compound concentration; Y: Activation % or Inhibition %

CYP1A2 = CYP1A2 (Homo sapiens (Human), UniProt P05177); experiment: in vitro; format: in vitro ADME; conditions: microsomes, 10 min
Sequence of CYP1A2 (P05177 whole entry): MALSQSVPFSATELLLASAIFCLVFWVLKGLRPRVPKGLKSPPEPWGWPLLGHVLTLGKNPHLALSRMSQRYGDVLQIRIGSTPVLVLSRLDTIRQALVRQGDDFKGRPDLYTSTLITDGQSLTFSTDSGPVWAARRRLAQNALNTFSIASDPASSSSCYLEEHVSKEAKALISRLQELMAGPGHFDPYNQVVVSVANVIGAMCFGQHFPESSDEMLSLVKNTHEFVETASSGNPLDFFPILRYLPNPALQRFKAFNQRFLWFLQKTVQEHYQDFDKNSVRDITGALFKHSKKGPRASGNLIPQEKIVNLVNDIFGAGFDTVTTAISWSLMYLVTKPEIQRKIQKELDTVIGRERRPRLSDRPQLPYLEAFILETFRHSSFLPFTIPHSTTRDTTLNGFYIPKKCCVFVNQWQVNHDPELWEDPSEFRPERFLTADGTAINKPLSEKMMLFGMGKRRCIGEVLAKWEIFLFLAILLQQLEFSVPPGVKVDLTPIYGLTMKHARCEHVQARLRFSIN
Experimental: as §1

SMILES	IC50 (CYP 2D6)	IC50 (CYP 2C9)	IC50 (CYP 2C19)	IC50 (CYP 3A4)	IC50 (GHSR-1a)	IC50 (CYP1A2)
CC[C@H](N)C(=O)N[C@H](Cc1csc2ccccc12)C(=O)N[C@H](Cc1c[nH]c2ccccc12)C(=O)N[C@@H](Cc1ccccc1)C(=O)NC1(C(N)=O)CCNCC1 [Compound 3] (H-[Abu][dBta][dW]F[Api]-NH2)	> 50 µM	> 50 µM	> 50 µM	> 50 µM	0.0172 µM	> 50 µM
NCC(=O)N[C@H](Cc1csc2ccccc12)C(=O)N[C@H](Cc1c[nH]c2ccccc12)C(=O)N[C@@H](Cc1ccccc1)C(=O)NC1(C(N)=O)CCNCC1 [Compound 11] (H-G[dBta][dW]F[Api]-NH2)	> 50 µM	> 50 µM	> 50 µM	33.4 µM	0.0203 µM	> 50 µM
C[C@@H](N)C(=O)N[C@H](Cc1csc2ccccc12)C(=O)N[C@H](Cc1c[nH]c2ccccc12)C(=O)N[C@@H](Cc1ccccc1)C(=O)NC1(C(N)=O)CCNCC1 [Compound 12] (H-[dA][dBta][dW]F[Api]-NH2)	> 50 µM	> 50 µM	> 50 µM	> 50 µM	0.0537 µM	> 50 µM
CC(C)[C@@H](N)C(=O)N[C@H](Cc1csc2ccccc12)C(=O)N[C@H](Cc1c[nH]c2ccccc12)C(=O)N[C@@H](Cc1ccccc1)C(=O)NC1(C(N)=O)CCNCC1 [Compound 13] (H-[dV][dBta][dW]F[Api]-NH2)	> 50 µM	> 50 µM	> 50 µM	> 50 µM	0.0435 µM	> 50 µM
CC(C)C[C@@H](N)C(=O)N[C@H](Cc1csc2ccccc12)C(=O)N[C@H](Cc1c[nH]c2ccccc12)C(=O)N[C@@H](Cc1ccccc1)C(=O)NC1(C(N)=O)CCNCC1 [Compound 14] (H-[dL][dBta][dW]F[Api]-NH2)	> 50 µM	> 50 µM	> 50 µM	> 50 µM	0.0332 µM	> 50 µM
NC(=O)C1(NC(=O)[C@H](Cc2ccccc2)NC(=O)[C@@H](Cc2c[nH]c3ccccc23)NC(=O)[C@@H](Cc2csc3ccccc23)NC(=O)[C@@H]2CCCN2)CCNCC1 [Compound 15] (H-P[dBta][dW]F[Api]-NH2)	31.1 µM	> 50 µM	> 50 µM	8.82 µM	0.0023 µM	> 50 µM
NCCC(=O)N[C@H](Cc1csc2ccccc12)C(=O)N[C@H](Cc1c[nH]c2ccccc12)C(=O)N[C@@H](Cc1ccccc1)C(=O)NC1(C(N)=O)CCNCC1 [Compound 16] (H-[βAla][dBta][dW]F[Api]-NH2)	35.4 µM	> 50 µM	> 50 µM	19.8 µM	0.0007 µM	> 50 µM
NC(=O)C1(NC(=O)[C@H](Cc2ccccc2)NC(=O)[C@@H](Cc2c[nH]c3ccccc23)NC(=O)[C@@H](Cc2csc3ccccc23)NC(=O)[C@@H]2CCC[C@@H]2N)CCNCC1 [Compound 21] (X1-[dBta][dW]F[Api]-NH2)	> 50 µM	> 50 µM	> 50 µM	> 50 µM	0.023 µM	> 50 µM
NCC1(C(=O)N[C@H](Cc2csc3ccccc23)C(=O)N[C@H](Cc2c[nH]c3ccccc23)C(=O)N[C@@H](Cc2ccccc2)C(=O)NC2(C(N)=O)CCNCC2)CCC1 [Compound 22] (X3-[dBta][dW]F[Api]-NH2)	> 50 µM	> 50 µM	> 50 µM	> 50 µM	0.0023 µM	> 50 µM

Continued, values first:

IC50 (CYP 2D6)	IC50 (CYP 2C9)	IC50 (CYP 2C19)	IC50 (CYP 3A4)	IC50 (GHSR-1a)	IC50 (CYP1A2)	SMILES
> 50 µM	> 50 µM	> 50 µM	> 50 µM	0.0033 µM	> 50 µM	NC(=O)C1(NC(=O)[C@H](Cc2ccccc2)NC(=O)[C@@H](Cc2c[nH]c3ccccc23)NC(=O)[C@@H](Cc2csc3ccccc23)NC(=O)C2CNC2)CCNCC1 [Compound 23] (Azetidine3carboxylic-[dBta][dW]F[Api]-NH2)
> 50 µM	> 50 µM	> 50 µM	> 50 µM	0.0054 µM	> 50 µM	NC(=O)C1(NC(=O)[C@H](Cc2ccccc2)NC(=O)[C@@H](Cc2c[nH]c3ccccc23)NC(=O)[C@@H](Cc2csc3ccccc23)NC(=O)C2(N)COC2)CCNCC1 [Compound 24] (H-[Ac4c(3-oxa)][dBta][dW]F[Api]-NH2)
> 50 µM	> 50 µM	> 50 µM	> 50 µM	0.0181 µM	> 50 µM	NC(=O)C1(NC(=O)[C@H](Cc2ccccc2)NC(=O)[C@@H](Cc2c[nH]c3ccccc23)NC(=O)[C@@H](Cc2csc3ccccc23)NC(=O)[C@H]2CCN2)CCNCC1 [Compound 25] (H-[dAze][dBta][dW]F[Api]-NH2)
> 50 µM	> 50 µM	> 50 µM	> 50 µM	0.0195 µM	> 50 µM	NC(=O)C1(NC(=O)[C@H](Cc2ccccc2)NC(=O)[C@@H](Cc2c[nH]c3ccccc23)NC(=O)[C@@H](Cc2csc3ccccc23)NC(=O)[C@H]2CCNC2)CCNCC1 [Compound 26] ({Pyrrolidine3carbonyl(3S)}-[dBta][dW]F[Api]-NH2)
> 50 µM	> 50 µM	> 50 µM	> 50 µM	0.0134 µM	> 50 µM	NC(=O)C1(NC(=O)[C@H](Cc2ccccc2)NC(=O)[C@@H](Cc2c[nH]c3ccccc23)NC(=O)[C@@H](Cc2csc3ccccc23)NC(=O)C23CNC[C@@H]2C3)CCNCC1 (stereo partly drawn) [Compound 30] (X2-[dBta][dW]F[Api]-NH2)
24.8 µM	> 50 µM	> 50 µM	2.55 µM	0.0024 µM	> 50 µM	CC[C@@H](N)C(=O)N[C@H](Cc1csc2ccccc12)C(=O)N[C@H](Cc1c[nH]c2ccccc12)C(=O)N[C@@H](Cc1ccccc1)C(=O)N[C@H](CCCCN)C(N)=O [Compound 32] (H-[dAbu][dBta][dW]F[dK]-NH2)
> 50 µM	> 50 µM	> 50 µM	> 50 µM	0.0031 µM	> 50 µM	CC[C@H](N)C(=O)N[C@H](Cc1csc2ccccc12)C(=O)N[C@H](Cc1c[nH]c2ccccc12)C(=O)N[C@@H](Cc1ccccc1)C(=O)N[C@H](CCCCN)C(N)=O [Compound 33] (H-[Abu][dBta][dW]F[dK]-NH2)
> 50 µM	> 50 µM	> 50 µM	> 50 µM	0.0051 µM	> 50 µM	NCCCC[C@@H](NC(=O)[C@H](Cc1ccccc1)NC(=O)[C@@H](Cc1c[nH]c2ccccc12)NC(=O)[C@@H](Cc1csc2ccccc12)NC(=O)[C@@H]1CCCN1)C(N)=O [Compound 45] (H-P[dBta][dW]F[dK]-NH2)
> 50 µM	> 50 µM	> 50 µM	> 50 µM	0.0028 µM	> 50 µM	NCCCC[C@@H](NC(=O)[C@H](Cc1ccccc1)NC(=O)[C@@H](Cc1c[nH]c2ccccc12)NC(=O)[C@@H](Cc1csc2ccccc12)NC(=O)CCN)C(N)=O [Compound 46] (H-[βAla][dBta][dW]F[dK]-NH2)
